# Measurements: patent US20230295096A1, “PYRAZOLE CARBOXAMIDE COMPOUNDS FOR TREATMENT OF HBV” (ASSEMBLY BIOSCIENCES, INC., priority 2020, published 2023)
# Like-named read-outs stand apart in the source and are kept apart here.
# System: HBV
# Assay: Viral load production from HepAD38 cells, qPCR of the HBV core sequence in supernatant
# Format: cell-based
# Conditions: HepAD38 cells, 5 days, HBV DNA in supernatant by qPCR
# Protocol: HepAD38 cells grown in a T-150 flask (Corning, cat#: 430825) with Growth Medium (DMEM/F12 (1:1) (Hyclone, cat#: SH30023.02), 1X Pen/Strep (Invitrogen, cat#: 15140-122), 10% FBS (Tissue Culture Biologics, cat#: 101), 250 µg/mL G418 (Alfa Aesar, cat#: J62671), 1 µg/mL Tetracycline (Teknova, cat#: T3320)) were detached with 0.25% trypsin-EDTA (Invitrogen, cat#: 25200-056). Tetracycline-free treatment medium (15 mL DMEM/F12 (1:1) 1× Pen/step, with 2% FBS, Tet-system approved (Clontech, cat#: 631106) were then added to mix, transferred into a 50 ml conical tube (Falcon, cat#: 21008-918,) and spun at 1300 rpm for 5 min. Pelleted cells were then re-suspended/washed with 50 mL of 1X DPBS (Invitrogen, cat#: 14190-136) 2 times and 50 mL treatment medium twice. HepAD38 cells were then re-suspended with 10 mL of treatment medium, syringed and counted. Wells of 96-well clear bottom TC plate (Corning, cat#: 3904,) were seeded at 50.000 cells/well in 180 µL of treatment medium, and 20 µL of either 10% DMSO (Sigma, cat#: D4540) as controls or a 10X solution of test compounds in 10% DMSO in treatment media was added for a final compound concentration starting at 10 µM, and plates were incubated in 5% CO2 incubator at 37° C. for 5 days.
# Subsequently viral load production was assayed by quantitative PCR (qPCR) of the HBV core sequence. PCR reaction mixture containing forward primers HBV-f 5′-CTGTGCCTTGGGTGGCTTT-3′ (IDT DNA), Reverse primers HBV-r 5′-[…]-3′ (IDT DNA), Fluorescent TaqMan^tm Probes HBV-probe 5′-FAM/AGCTCCAAA/ZEN/[…]/3IABkFQ-3′ (IDT DNA), 10 µL/well of PerfeCTa® qPCR ToughMix® (Quanta Biosciences, Cat#: 95114-05 K), and 6 µL/well of DEPC water (Alfa Aesar, cat#: J62087) was prepared. Four µL of supernatant was added to 16 µL of the reaction mixture in a qPCR plate (Applied Biosytems, Cat#: 4309849), sealed with a film (Applied Biosystems, Cat#: 4311971), centrifuged for a few seconds, and subsequently run on an Applied Biosystems VIIA7. The PCR mixture was incubated at 45° C. for 5 min, then 95° C. for 10 min, followed by 40 cycles of 10 seconds at 95° C. and 20 seconds at 60° C. Viral load was quantified against known HBV DNA standards by using ViiA™ 7 Software. Viral load in the supernatant from wells with treated cells were compared against viral load in supernatant from DMSO control wells (≥ 3 per plate). Cell viability assay was performed with CellTiter-Glo Luminescent Cell Viability Assay (Promega, cat#: G7573) with modification. Mixed appropriate amount of CellTiter-Glo (CTG) 1X DPBS in a 1:1 ratio, added 100 uL of the mixture to each well followed completely removal of all supernatant in each well without touching cell surface. Incubated the plate at room temperature for 10 min on an orbital shaker, and then read the plate with a plate reader (TECAN M1000 or Envision). EC50 or CC50 values were calculated through curve-fitting of the four-parameter nonlinear-logistic-regression model (GraphPad Prism or Dotmatics). CC50 values were all >10 µM.
# [1] = Hepatitis B virus, HePAD38, 120 h, Table 1 ranges, read-out: Activity (viral load lowering EC50)
Structure (SMILES),EC50 [1] [nM],other results
"Cn1nc(C2CC3CC(c4ccccc4)C(O)C3C2)c(C(=O)Nc2ccc(F)c(Cl)c2)c1N (single isomer, unassigned) [Example 144, 5-Amino-N-(3-chloro-4-fluorophenyl)-3-(4-hydroxy-5-phenyloctahydropentalen-2-yl)-1-methyl-1H-pyrazole-4-carboxamide]",,"EC50 (Table 2 ranges, read-out: VL HepAD38 EC50 range): < 100 nM"
"Cn1nc(C2CC3CN(C(=O)NCC4CC(F)(F)C4)CC3C2)c(C(=O)Nc2ccc(F)c(Cl)c2)c1N (stereo not drawn) [Example 126, 5-(5-Amino-4-((3-chloro-4-fluorophenyl)carbamoyl)-1-methyl-1H-pyrazol-3-yl)-N-((3,3-difluorocyclobutyl)methyl)-hexahydrocyclopenta[c]pyrrole-2(1H)-carboxamide]",50 to 500,
"Cn1nc([N+](=O)[O-])cc1C1(O)CC2CC(c3nn(C)c(N)c3C(=O)Nc3ccc(F)c(Cl)c3)CC2C1 [Compd. 4-2, 5-amino-N-(3-chloro-4-fluorophenyl)-3-((2 s,3aR,5r,6aS)-5-hydroxy-5-(1-methyl-3-nitro-1H-pyrazol-5-yl)octahydropentalen-2-yl)-1-methyl-1H-pyrazole-4-carboxamide]",< 10,
"Cn1nc(C2CC3CC(O)(C(F)(F)S(=O)(=O)c4ccc(Cl)cc4)CC3C2)c(C(=O)Nc2ccc(F)c(Cl)c2)c1N (stereo not drawn) [Example 34, 5-Amino-N-(3-chloro-4-fluorophenyl)-3-(5-(((4-chlorophenyl)sulfonyl)difluoromethyl)-5-hydroxyoctahydropentalen-2-yl)-1-methyl-1H-pyrazole-4-carboxamide]",10 to 50,
"Cc1noc(C)c1C(=O)NCC1CC2CC(c3nn(C)c(N)c3C(=O)Nc3ccc(F)c(Cl)c3)CC2C1 (stereo not drawn) [Example 59, N-((5-(5-Amino-4-((3-chloro-4-fluorophenyl)carbamoyl)-1-methyl-1H-pyrazol-3-yl)octahydropentalen-2-yl)methyl)-3,5-dimethylisoxazole-4-carboxamide]",< 10,
"Cn1nc(C2CC3CC(O)(c4cn(COP(=O)(O)O)nc4C(F)(F)F)CC3C2)c(C(=O)Nc2ccc(F)c(Cl)c2)c1N (stereo not drawn) [Example 157, sodium sodium (4-(5-(5-amino-4-((3-chloro-4-fluorophenyl)carbamoyl)-1-methyl-1H-pyrazol-3-yl)-2-hydroxyoctahydropentalen-2-yl)-3-(trifluoromethyl)-1H-pyrazol-1-yl)methyl phosphate]",< 10,
"Cn1nc(C2CC3CC(O)(c4c[nH]nc4C(F)(F)F)CC3C2)c(C(=O)Nc2ccc(F)c(Cl)c2)c1N (stereo not drawn) [Example 156, 5-amino-N-(3-chloro-4-fluorophenyl)-3-(5-hydroxy-5-(3-(trifluoromethyl)-1H-pyrazol-4-yl)octahydropentalen-2-yl)-1-methyl-1H-pyrazole-4-carboxamide]",< 10,
"Cn1nc(C2CC3CC(CNS(=O)(=O)C(F)(F)F)CC3C2)c(C(=O)Nc2ccc(F)c(Cl)c2)c1N (stereo not drawn) [Example 93, 5-Amino-N-(3-chloro-4-fluorophenyl)-1-methyl-3-(5-(((trifluoromethyl)sulfonamido)methyl)octahydropentalen-2-yl)-1H-pyrazole-4-carboxamide]",10 to 50,
"Cn1cnc(C(=O)NCC2CC3CC(c4nn(C)c(N)c4C(=O)Nc4ccc(F)c(Cl)c4)CC3C2)c1 (stereo not drawn) [Example 38, 5-Amino-N-(3-chloro-4-fluorophenyl)-1-methyl-3-(5-((1-methyl-1H-imidazole-4-carboxamido)methyl)octahydropentalen-2-yl)-1H-pyrazole-4-carboxamide]",< 10,
"COCCOCCOCCOCCOCCOCCOCCOCCOC(=O)OCn1cc(C2(O)CC3CC(c4nn(C)c(N)c4C(=O)Nc4ccc(F)c(Cl)c4)CC3C2)c(C(F)(F)F)n1 [Example 158, (4-((2r,3aR,5 s,6aS)-5-(5-amino-4-((3-chloro-4-fluorophenyl)carbamoyl)-1-methyl-1H-pyrazol-3-yl)-2-hydroxyoctahydropentalen-2-yl)-3-(trifluoromethyl)-1H-pyrazol-1-yl)methyl (2,5,8,11,14,17,20,23-octaoxapentacosan-25-yl) carbonate]",< 10,
Cn1nc(C2CC3CC(O)(c4n[nH]cc4C(F)(F)F)CC3C2)c(C(=O)Nc2ccc(F)c(Cl)c2)c1N (stereo not drawn) [Example 212],< 10,
"Cn1nc(C2CC3CN(C(=O)c4cccc(F)c4)CC3C2)c(C(=O)Nc2ccc(F)c(Cl)c2)c1N (stereo not drawn) [Example 121, 5-Amino-N-(3-chloro-4-fluorophenyl)-3-(2-(3-fluorobenzoyl)octahydrocyclopenta[c]pyrrol-5-yl)-1-methyl-1H-pyrazole-4-carboxamide]",10 to 50,
"CC(NC(=O)N1CC2CC(c3nn(C)c(N)c3C(=O)Nc3ccc(F)c(Cl)c3)CC2C1)C(F)(F)F (single isomer, unassigned) [Example 128, 5-(5-Amino-4-((3-chloro-4-fluorophenyl)carbamoyl)-1-methyl-1H-pyrazol-3-yl)-N-(1,1,1-trifluoropropan-2-yl)hexahydrocyclopenta[c]pyrrole-2(1H)-carboxamide]",50 to 500,
"Cc1ccccc1C1(O)CC2CC(c3nn(C)c(N)c3C(=O)Nc3ccc(F)c(Cl)c3)CC2C1 (stereo not drawn) [Example 8, 5-Amino-N-(3-chloro-4-fluorophenyl)-3-(5-hydroxy-5-(o-tolyl)octahydropentalen-2-yl)-1-methyl-1H-pyrazole-4-carboxamide]",< 10,
Cn1nc(C2CC3CC(O)(c4nc(C(F)(F)F)cs4)CC3C2)c(C(=O)Nc2ccc(F)c(Cl)c2)c1N (stereo not drawn) [Example 149],10 to 50,
Cn1nc(C2CC3CC(N)(CS(C)(=O)=O)CC3C2)c(C(=O)Nc2ccc(F)c(Cl)c2)c1N (stereo not drawn) [Example 182],> 500,
"Cn1nc(C2CC3CN(c4ccc(C(F)(F)F)nn4)CC3C2)c(C(=O)Nc2ccc(F)c(Cl)c2)c1N (stereo not drawn) [Example 132, 5-Amino-N-(3-chloro-4-fluorophenyl)-1-methyl-3-(2-(6-(trifluoromethyl)pyridazin-3-yl)octahydrocyclopenta[c]pyrrol-5-yl)-1H-pyrazole-4-carboxamide]",10 to 50,
"Cn1nc(C2CC3CC(CNC(=O)C4(C)CC4)CC3C2)c(C(=O)Nc2ccc(F)c(Cl)c2)c1N (stereo not drawn) [Example 65, 5-Amino-N-(3-chloro-4-fluorophenyl)-1-methyl-3-(5-((1-methylcyclopropane-1-carboxamido)methyl)octahydropentalen-2-yl)-1H-pyrazole-4-carboxamide]",< 10,
Cn1cc(C2(O)CC3CC(c4nn(C)c(N)c4C(=O)Nc4ccc(F)c(Cl)c4)CC3C2)cn1 (stereo not drawn) [Example 146],< 10,
Cc1nc(C2(O)CC3CC(c4nn(C)c(N)c4C(=O)Nc4ccc(F)c(Cl)c4)CC3C2)no1 (stereo not drawn) [Example 177],< 10,
Cn1nc(C2CC3CC(N4CCC(F)(C(N)=O)CC4)CC3C2)c(C(=O)Nc2ccc(F)c(Cl)c2)c1N (stereo not drawn) [Example 185],10 to 50,
COC(=O)C1=CCN(C2CC3CC(c4nn(C)c(N)c4C(=O)Nc4ccc(F)c(Cl)c4)CC3C2)CC1 (stereo not drawn) [Example 186],50 to 500,
"Cn1nc(C2CC3CC(CNC(=O)C(C)(C)O)CC3C2)c(C(=O)Nc2ccc(F)c(Cl)c2)c1N (single isomer, unassigned) [Example 44, 5-Amino-N-(3-chloro-4-fluorophenyl)-3-(5-((2-hydroxy-2-methylpropanamido)methyl)octahydropentalen-2-yl)-1-methyl-1H-pyrazole-4-carboxamide]",,"EC50 (Table 1 ranges, read-out: Activity (viral load lowering EC50)): < 10 nM"
Cc1noc(C2(O)CC3CC(c4nn(C)c(N)c4C(=O)Nc4ccc(F)c(Cl)c4)CC3C2)n1 (stereo not drawn) [Example 179],< 10,
